Data published in patent US20250127896A1, “CHIMERIC TIM4 RECEPTORS AND USES THEREOF” (CERO THERAPEUTICS HOLDINGS, INC., priority 2021, published 2025).

What was measured:
Type in all cases: cell-based
REC-1 cells = experiment: Cytokine induction in CER T / REC-1 co-cultures (multiparametric ELISA); details: for cytokine response (GrB, IFN-γ, TNF-α) with BTK inhibitor: ibrutinib-induced phosphatidylserine exposure
Description: FIGS. 16A-16H: Induction of Cytokines in Ibrutinib-Treated Co-Cultures of CER1183 and CER1234 T cells and REC-1 Target Cells. Samples depicted in bar graphs from left to right, untransduced, CER-1183, and CER-1234. FIG. 16A: TNFα induction. FIG. 16B: IL-2 induction. FIG. 16C: IFNγ. FIG. 16D: IL-5 induction. FIG. 16E: IL-6 induction. FIG. 16F: IL-10 induction. FIG. 16G: IL-4 induction. FIG. 16H: granzyme B induction.
Cytokine induction was assessed by multiparametric ELISA using conditioned supernatants harvested after 96 hours in the cytotoxicity assay described above.
CER T-cell activation was assessed by measuring induction of IFN-gamma by plate- and cell-based assays. Single induction plate assay: varying concentrations of phosphatidylserine (PS) or phosphatidylethanolamine (PE), a control membrane phospholipid not recognized by wild type TIM-4 (wtTIM-4), were coated onto high-binding tissue culture plates. CER T cells were added and IFN-γ levels were measured 24 hours after ligand exposure by ELISA. EC50 concentrations were determined by nonlinear regression (agonist vs. response-variable slope (4 parameters)). Induction by recursive stimulation plate assay: CER T cells were added to phosphatidylserine coated plates (2.5-20 μg/mL PS coating). Five days later, CER T cells were transferred to uncoated plates with fresh T cell optimizer media for 24 hours. Then, CER T cells were transferred again to a fresh PS coated plate. Supernatant was collected to assess IFN-γ induction by ELISA at various timepoints during re-stimulation (24, 72, and 120 hours). Cell-based assay: cytokine induction was assessed by multiparametric ELISA using conditioned supernatants harvested after 120 hours from the cytotoxicity assay described below.

phosphatidylserine (PS) = experiment: Recursive stimulation plate assay: IFN-γ on serial phosphatidylserine exposure; details: 3 serial rounds
Description: FIGS. 19A-19C: CER T cells are activated and produce IFN-γ in response to phosphatidylserine engagement in a cell-free in vitro system. FIG. 19A: IFN-γ production in response phosphatidylserine (PS). IFN-γ production was induced in CER-1236 and CER-1234 T cells stimulated with PS (FIG. 19A), but not with phosphatidylethanolamine (PE) (FIG. 19B). […] FIG. 19C: CER1236 T cells are capable of recursive stimulation in vitro. Recursive IFN-γ induction with 3 serial stimulations at the indicated time points following a 24-hour rest after the first stimulation.
FIG. 43 is a schematic depicting assay design for measuring CER1236 reactivation in response to stimulus by repeated phosphatidylserine stimulation of CER1236 T cells and measurement of IFNγ production.
CER T-cell activation was assessed by measuring induction of IFN-gamma by plate- and cell-based assays. […] CER T cells were added and IFN-γ levels were measured 24 hours after ligand exposure by ELISA. EC50 concentrations were determined by nonlinear regression (agonist vs. response-variable slope (4 parameters)). […] Cell-based assay: cytokine induction was assessed by multiparametric ELISA using conditioned supernatants harvested after 120 hours from the cytotoxicity assay described below.

[1] = tested on: JeKo-1 MCL mCherry+ cells; experiment: IFN-γ secretion of CER1236 T cells co-cultured with ibrutinib-treated JeKo-1 cells (ELLA); details: JeKo-1 pretreated 20 μM Ibrutinib 48 h, co-culture 0.5 μM Ibrutinib, 120 h
Description: After 120 h, IFN-γ secretion was measured using ELLA automated ELISA.

NSCLC H1975 cells [2] = experiment: H1975 NSCLC cell growth with CER1236 T cells and osimertinib (Incucyte); details: 100 nM osimertinib 24 h, then 4.88 nM, E:T 0.25:1, 120 h
Description: FIG. 39: Graph showing NSCLC H1975 cell growth for cells pretreated with 100 nM osimertinib or vehicle and then co-cultured with CER1236 T cells.
CER1236 T cells were tested in combination with EGFR tyrosine kinase inhibitor osimertinib on a non-small cell lung cancer (NSCLC) cell line. Ten-thousand NSCLC H1975 cells were cultured for 24 h with 100 nM osimertinib or vehicle (DMSO) and then co-cultured with 2500 CER1236 T cells at an Effector:Target cell ratio of 0.25:1 in the presence or absence of 4.88 nM osimertinib or vehicle. Tumor cell growth was monitored with indicated for 120 h in an Incucyte assay.

NSCLC H1975 cells [3] = experiment: Cytokine production by CER1236 T cells co-cultured with H1975 cells and osimertinib (Ella); details: 96 h, E:T 1:4, vs vehicle and untransduced T cells
Description: FIG. 40: Graphs showing cytokine production by CER1236 T cells co-cultured with NSCLC H1975 cells with 100 nM osimertinib or vehicle (left to right: granzyme B, TNFα, IL-6, and IFNγ).
Cytokine production was also measured in CER1236 T cells co-cultured with H1975 NSCLC cells pre-treated with osimertinib or vehicle. Ten-thousand NSCLC H1975 cells were cultured for 24 h with 100 nM Osimertinib or vehicle (DMSO) and then co-cultured with CER T cells for 96 h at an E:T of 1:4 in the presence or absence of 4.88 nM Osimertinib or vehicle. Effector:Target ratio was 1:4, and H1975 cells were plated at 10,000 cells/well. Cytokine production was determined by Ella assay.

NSCLC H1975 cells [4] = experiment: T cell expansion in H1975 co-culture with osimertinib (quantitative flow cytometry)
Description: FIG. 41: Bar graphs showing fold expansion of total CD3+ T cells (untransduced+vehicle, untransduced+osimertinib, CER1236+vehicle, CER1236+osimertinib) determined by quantitative flow cytometry using quantitation beads over a time course (48 hrs, 96 hrs, 120 hrs, and 144 hrs).
FIG. 42: Flow cytometry plots measuring CD3+ cells (y-axis) and H1975 cell (x-axis) in co-culture experiments with H1975 cells pretreated with vehicle or osimertinib ([…], 19.53 nM) and untransduced T cells (top row) or CER1236 T cells (bottom row).
Proliferation of CER1236 T cells co-cultured with H1975 NSCLC cells pre-treated with osimertinib or vehicle was also measured. […] Total CD3+ T cells fold expansion was determined by quantitative flow cytometry using quantitation beads over a time course (48 hrs, 96 hrs, 120 hrs, and 144 hrs). Experiment was performed twice, once with 5,000 target H1975 cells and once with 10,000 target H1975 cells.

“CER-1234: chimeric Tim4 receptor: Tim4 binding domain-CD28tm-CD28-TLR2 TIR-CD3z, SEQ ID NO:18; tested as transduced T cells” was tested, and the “IL-2, IL-4 and IL-6” value (REC-1 cells; co-culture with REC-1 cells, 0.5 μM ibrutinib) was “nominally increased”, the “cytokine induction: TNF-α, IFN-γ, IL-10, IL-5, granzyme B” value (REC-1 cells; co-culture with REC-1 cells, 0.5 μM ibrutinib, 96 hours) was “induced” and the “cytokine response (GrB, IFN-γ, TNF-α) with BTK inhibitor” value (REC-1 cells) was “production of Th1 cytokines”. For the same substance, the “cytokine response (GrB, IFN-γ, TNF-α) with BTK inhibitor” value (REC-1 cells; listed as CER1234) was “enhances CER1234 T cell cytokine response”.
With “CER-1236: chimeric Tim4 receptor: Tim4 binding domain-CD28tm-CD28-CD3z-TLR2 TIR, SEQ ID NO:19; tested as transduced T cells” the “IFN-γ response upon serial phosphatidylserine exposure” value (phosphatidylserine (PS)) was “elicited repeated IFN-γ response upon 3 serial rounds of exposure to phosphatidylserine”, the “IFN-γ response with ibrutinib” value [1] was “enhances CER1236 T cell IFN-γ response” and the “H1975 tumor cell growth, combination with osimertinib” value (NSCLC H1975 cells [2]) was “synergizes to inhibit H1975 NSCLC cells in vitro”. For the same substance, the “cytokine production (granzyme B, TNFα, IL-6, IFNγ), combination with osimertinib” value (NSCLC H1975 cells [3]) was “increased cytokine production”, the “CD3+ T cell proliferation and H1975 cell numbers, osimertinib-treated H1975” value (NSCLC H1975 cells [4]; 120 hours, 4:1 effector:target ratio, flow cytometry) was “CD3+ T cell proliferation was highest and H1975 cell numbers lowest” and the “total CD3+ T cells fold expansion, combination with osimertinib” value (NSCLC H1975 cells [4]; E:T 1:4, 48, 96, 120, 144 hrs) was “osimertinib drives CER1236 T cell proliferation”.
